In article PMC6522510 (Nature Communications, 2019):
Like-named read-outs stand apart in the source and are kept apart here.

Legend:
Assay in all cases: Secondary dose-response HTS, Cell Titer Glo; call rule not given here
Type in all cases: cell-based, human
MV4-11 = settings: MV4-11; for EC50: Homo sapiens
M07e = settings: for EC50: Homo sapiens, M-07e
CHRF288-11 = system: CHRF288-11
MOLM-13 = settings: MOLM-13; for EC50: Homo sapiens
CMS = system: CMS
U937 = system: U937
ML2 = settings: ML-2; for EC50: Homo sapiens
CMK = settings: CMK
[1] = secondary high-throughput screen
[2] = secondary high-throughput screen, M07e
[3] = secondary high-throughput screen, CHRF288-11
[4] = secondary high-throughput screen, CMS
[5] = secondary high-throughput screen, U937
[6] = Homo sapiens, HTS, secondary high-throughput screen, CHRF288-11, read-out: average effective concentration, CHRF288-11
[7] = Homo sapiens, U-937, secondary high-throughput screen, U937, read-out: average effective concentration, U937
[8] = secondary high-throughput screen, read-out: average effective concentration, ML-2
[9] = secondary high-throughput screen, U937, read-out: average effective concentration, U937
[10] = secondary high-throughput screen, read-out: average effective concentration, CMK
[11] = secondary high-throughput screen, […]
[12] = secondary high-throughput screen, read-out: average effective concentration, MOLM-13
[13] = secondary high-throughput screen, read-out: average effective concentration, MV4-11
[14] = secondary high-throughput screen, M07e, read-out: average effective concentration, M07e

Compound: IC-87114
- average effective concentration, MV4-11 (MV4-11; [1]): Inactive
- average effective concentration, M07e (M07e; [2]): Inactive
- average effective concentration, CHRF288-11 (CHRF288-11; [3]): Inactive
- average effective concentration, MOLM-13 (MOLM-13; [1]): Inactive
- average effective concentration, CMS (CMS; [4]): Inactive
- average effective concentration, U937 (U937; [5]): Inactive
- average effective concentration, ML-2 (ML2; [1]): Inactive
- average effective concentration, CMK (CMK; [1]): Inactive

Compound: CCOC(=O)c1cc2ccccc2nc1C [MC-1626]
- average effective concentration, MV4-11 (MV4-11; [1]): Inactive
- average effective concentration, M07e (M07e; [2]): Inactive
- average effective concentration, CHRF288-11 (CHRF288-11; [3]): Inactive
- average effective concentration, MOLM-13 (MOLM-13; [1]): Inactive
- average effective concentration, CMS (CMS; [4]): Inactive
- average effective concentration, U937 (U937; [5]): Inactive
- average effective concentration, ML-2 (ML2; [1]): Inactive
- average effective concentration, CMK (CMK; [1]): Inactive

Compound: COC[C@H](NC(=O)c1cnc(C)s1)C(=O)N[C@@H](COC)C(=O)N[C@@H](Cc1ccccc1)C(=O)[C@@]1(C)CO1 [Oprozomib, reference compound]
- EC50 (MV4-11; secondary HTS, 72 h, average of triplicate, read-out: EC50 MV4-11): 0.01 µM
- EC50 (M07e; secondary HTS, 72 h, average of triplicate, read-out: EC50 M07e): 0.01 µM
- EC50 (CHRF288-11; [6]): 0.025 µM
- EC50 (CHRF288-11; Homo sapiens, secondary HTS, 72 h, average of triplicate, read-out: EC50 CHRF288-11): 0.03 µM
- EC50 (MOLM-13; secondary HTS, 72 h, average of triplicate, read-out: EC50 MOLM-13): 0.01 µM
- EC50 (CMS; Homo sapiens, secondary HTS, 72 h, average of triplicate, read-out: EC50 CMS): 0.001 µM
- EC50 (U937; Homo sapiens, U-937, secondary HTS, 72 h, average of triplicate, read-out: EC50 U937): 0.01 µM
- EC50 (U937; [7]): 0.011 µM
- EC50 (ML2; secondary HTS, 72 h, average of triplicate, read-out: EC50 ML2): 0.01 µM
- EC50 (ML2; [8]): 0.005 µM
- EC50 (CMK; Homo sapiens, secondary HTS, 72 h, average of triplicate, read-out: EC50 CMK): 0.01 µM
- EC50 (CMK; Homo sapiens, secondary high-throughput screen, read-out: average effective concentration, CMK): 0.0076 µM

Compound: CNC(=O)c1c(F)cccc1Nc1nc(Nc2cc3c(cc2OC)CCN3C(=O)CN(C)C)nc2[nH]ccc12 [GSK1838705A]
- average effective concentration, MV4-11 (MV4-11; [1]): Inactive
- average effective concentration, M07e (M07e; [2]): Inactive
- average effective concentration, CHRF288-11 (CHRF288-11; [3]): Inactive
- average effective concentration, MOLM-13 (MOLM-13; [1]): Inactive
- average effective concentration, CMS (CMS; [4]): Inactive
- EC50 (U937; [9]): 6.2 µM
- average effective concentration, ML-2 (ML2; [1]): Inactive
- EC50 (CMK; [10]): 5.8 µM

Compound: CCn1c(=O)c(-c2cc[nH]n2)cc2c(C)nc(N)nc21 [Voxtalisib]
- average effective concentration, MV4-11 (MV4-11; [1]): Inactive
- average effective concentration, M07e (M07e; [2]): Inactive
- average effective concentration, CHRF288-11 (CHRF288-11; [3]): Inactive
- average effective concentration, MOLM-13 (MOLM-13; [1]): Inactive
- average effective concentration, CMS (CMS; [4]): Inactive
- average effective concentration, U937 (U937; [5]): Inactive
- average effective concentration, ML-2 (ML2; [1]): Inactive
- average effective concentration, CMK (CMK; [1]): Inactive

Compound: CN1CCc2c(c3ccccc3n2Cc2ccc(C(=O)NO)cc2)C1 [[…]]
- average effective concentration, MV4-11 (MV4-11; [1]): Inactive
- average effective concentration, M07e (M07e; [11]): Inactive
- average effective concentration, CHRF288-11 (CHRF288-11; [3]): Inactive
- EC50 (MOLM-13; [12]): > 10 µM
- average effective concentration, CMS (CMS; [4]): Inactive
- average effective concentration, U937 (U937; [5]): Inactive
- average effective concentration, ML-2 (ML2; [1]): Inactive
- average effective concentration, CMK (CMK; [1]): Inactive

Compound: O=C1NC(=O)/C(=C/c2cccc(C(F)(F)F)c2)S1 [SMI-4A]
- average effective concentration, MV4-11 (MV4-11; [1]): Inactive
- average effective concentration, M07e (M07e; [2]): Inactive
- average effective concentration, CHRF288-11 (CHRF288-11; [3]): Inactive
- average effective concentration, MOLM-13 (MOLM-13; [1]): Inactive
- average effective concentration, CMS (CMS; [4]): Inactive
- average effective concentration, U937 (U937; [5]): Inactive
- average effective concentration, ML-2 (ML2; [1]): Inactive
- average effective concentration, CMK (CMK; [1]): Inactive

Compound: O=C(O)c1ccnc(C(=O)O)c1 [2,4-PDAC]
- average effective concentration, MV4-11 (MV4-11; [1]): Inactive
- average effective concentration, M07e (M07e; [2]): Inactive
- average effective concentration, CHRF288-11 (CHRF288-11; [3]): Inactive
- average effective concentration, MOLM-13 (MOLM-13; [1]): Inactive
- average effective concentration, CMS (CMS; [4]): Inactive
- average effective concentration, U937 (U937; [5]): Inactive
- average effective concentration, ML-2 (ML2; [1]): Inactive
- average effective concentration, CMK (CMK; [1]): Inactive

Compound: [NH4+].[NH4+].[SH-].[SH-].[S]=[Mo]=[S] [AMMONIUM TETRATHIOMOLYBDATE]
- average effective concentration, MV4-11 (MV4-11; [1]): Inactive
- average effective concentration, M07e (M07e; [2]): Inactive
- average effective concentration, CHRF288-11 (CHRF288-11; [3]): Inactive
- average effective concentration, MOLM-13 (MOLM-13; [1]): Inactive
- average effective concentration, CMS (CMS; [4]): Inactive
- average effective concentration, U937 (U937; [5]): Inactive
- average effective concentration, ML-2 (ML2; [1]): Inactive

Compound: O=C(O)c1ccc(O)c2ncccc12 [IOX 1]
- average effective concentration, MV4-11 (MV4-11; [1]): Inactive
- average effective concentration, M07e (M07e; [2]): Inactive
- average effective concentration, CHRF288-11 (CHRF288-11; [3]): Inactive
- average effective concentration, MOLM-13 (MOLM-13; [1]): Inactive
- average effective concentration, CMS (CMS; [4]): Inactive
- average effective concentration, U937 (U937; [5]): Inactive
- average effective concentration, ML-2 (ML2; [1]): Inactive

Compound: OCCN1CCN(CCCN2c3ccccc3Sc3ccc(C(F)(F)F)cc32)CC1 [FLUFENAZINE]
- average effective concentration, MV4-11 (MV4-11; [1]): Inactive
- average effective concentration, M07e (M07e; [2]): Inactive
- average effective concentration, CHRF288-11 (CHRF288-11; [3]): Inactive
- average effective concentration, MOLM-13 (MOLM-13; [1]): Inactive
- average effective concentration, CMS (CMS; [4]): Inactive
- average effective concentration, U937 (U937; [5]): Inactive
- average effective concentration, CMK (CMK; [1]): Inactive

Compound: NC1CC1c1cc(F)cc(F)c1OCc1ccccc1 (stereo not shown) [Compound S2101]
- average effective concentration, MV4-11 (MV4-11; [1]): Inactive
- average effective concentration, M07e (M07e; [2]): Inactive
- average effective concentration, CHRF288-11 (CHRF288-11; [3]): Inactive
- average effective concentration, MOLM-13 (MOLM-13; [1]): Inactive
- average effective concentration, CMS (CMS; [4]): Inactive
- average effective concentration, U937 (U937; [5]): Inactive
- average effective concentration, ML-2 (ML2; [1]): Inactive

Compound: COc1cc2nc(N3CCCN(C)CC3)nc(NC3CCN(Cc4ccccc4)CC3)c2cc1OC [BIX 01294]
- EC50 (MV4-11; [13]): 3 µM
- EC50 (M07e; [14]): > 10 µM
- EC50 (CHRF288-11; [6]): 4.4 µM
- EC50 (MOLM-13; [12]): 2.5 µM
- EC50 (CMS; Homo sapiens, HTS, secondary high-throughput screen, CMS, read-out: average effective concentration, CMS): > 10 µM
- EC50 (U937; [7]): 2 µM
- EC50 (ML2; [8]): 3.6 µM

Compound: N[C@@H]1C[C@H]1c1ccccc1 (racemic) [TRANYLCYPROMINE]
- average effective concentration, MV4-11 (MV4-11; [1]): Inactive
- average effective concentration, M07e (M07e; [2]): Inactive
- average effective concentration, CHRF288-11 (CHRF288-11; [3]): Inactive
- average effective concentration, MOLM-13 (MOLM-13; [1]): Inactive
- average effective concentration, CMS (CMS; [4]): Inactive
- average effective concentration, U937 (U937; [5]): Inactive
- average effective concentration, ML-2 (ML2; [1]): Inactive

Compound: Nc1ncnc2c1nc(Cl)n2[C@@H]1O[C@H](CO)[C@@H](O)[C@H]1O [Compound 8-CHLOROADENOSINE]
- EC50 (MV4-11; [13]): 0.25 µM
- EC50 (M07e; [14]): 0.001 µM
- EC50 (CHRF288-11; [6]): 1.2 µM
- EC50 (MOLM-13; [12]): 2.2 µM
- EC50 (CMS; Homo sapiens, HTS, read-out: average effective concentration, CMS): 4.4 µM
- EC50 (U937; [7]): 1 µM
- EC50 (ML2; [8]): 2.8 µM

Compound: CC1CCCCCC(=O)c2c(O)cc(O)cc2CC(=O)O1 (single isomer, unassigned; (-)) [(-)-CURVULARIN]
- average effective concentration, MV4-11 (MV4-11; [1]): Inactive
- average effective concentration, M07e (M07e; [11]): Inactive
- EC50 (CHRF288-11; secondary high-throughput screen, CHRF288-11, read-out: average effective concentration, CHRF288-11): 4.7 µM
- average effective concentration, MOLM-13 (MOLM-13; [1]): Inactive
- EC50 (CMS; secondary high-throughput screen, CMS, read-out: average effective concentration, CMS): 0.32 µM
- EC50 (U937; [9]): 0.82 µM
- EC50 (CMK; [10]): 1.5 µM
